Earlier results, collected in patent US20240307482A1, “TOPICAL COMPOSITIONS” (Illustris Pharmaceuticals, Inc., priority 2019, published 2024).

Test system: wrinkles
Conditions: formulations with 10% concentration acetyl hexapeptide; after 30 days of trial use

acetyl hexapeptide-3
reduce the depth of wrinkles: up to 30%
